Data: patent publication US5658880A, “Sialic acid/fucose based medicaments” (Glycomed Incorporated, priority 1994, dated 1997)

Tested on: P-selectin
Assay: Flow cytometric assay: inhibition of P-selectin-IgG binding to HL-60 cells
Format: cell-based, human
Parameters: unit of the concentration uncertain
Protocol: The interaction of P-selectin and its cellular ligand was studied using a flow cytometric assay (Erbe, D. V. et al., J. Cell Biol. (1993) 120:1227). HL60 cells (maintained in high glucose DME plus 10% Hyclone FBS) were used in this assay. Before staining with P-selectin-IgG the cells were preincubated in Dulbecco's PBS/1% BSA/0.1% sodium azide/1% normal rabbit serum (staining medium) for 30-60 mins on ice. After this initial incubation, 1 μg of P-selectin-IgG was added to 100 μl aliquots of 10^6 cells and incubated for 30-60 mins on ice. The cells were when washed with staining medium and resuspended in 100 μl of staining medium to which was added 2 μl of a phycoerythrin-conjugated F(ab')^2 goat anti-human IgG (Fc specific). The cells were incubated for 15-30 mins on ice, washed twice with staining medium, and resuspended in 0.5 ml of staining medium before flow cytometric analysis on a FACScan (Becton Dickinson & Co., Mountain View, Calif.). To determine that the staining was an interaction of P-selectin with its ligand, the staining was also done in the presence of 10 mM EGTA. To determine the protease sensitivity and the requirement for sialic acid of this interaction, HL-60 cells in D-PBS and 1% BSA were incubated with either trypsin or Arthrobacter or Clostridium sialidases at 37° C. before resuspending in staining medium. To examine the ability of various carbohydrates to inhibit staining, 50 μg/ml fucoidin (Sigma Immunochemicals, St. Louis, Mo.), 50 μg/ml dextran sulfate (Pharmacia Fine Chemicals, Piscataway, N.J.), 10 mg/ml mannose-1-phosphate (Sigma Immunochemicals), or 10 mg/ml mannose-6-phosphate (Sigma Immunochemicals) was added to cells immediately before the addition of the P-selectin chimera. Each carbohydrate was then present until the cells were washed before the addition of the second stage antibody. A potential complication of this FACS assay arose from the use of selectin-IgG chimeras to stain cells which bear human IgG Fc receptors (FcγR; Fanger, M. W., et al., Immunol. Today (1989) 10:92). Adding rabbit IgG (in the form of normal rabbit serum) to the assay medium blocked this binding in most cases.

## CC(=O)NC1C(O)CC(OCCCCCCOC2OC(C)C(O)C(O)C2O)(C(=O)O)OC1C(O)C(O)CO [Compound 7, 1-O-α-Neu5Ac-(6-O-α-L-Fucopyranosyl)-Hexane]
10 (unit uncertain)
  Inhibition (%) of P-selectin-IgG binding to HL-60 cells: 60%
50 (unit uncertain)
  Inhibition (%) of P-selectin-IgG binding to HL-60 cells: 80%
100 (unit uncertain)
  Inhibition (%) of P-selectin-IgG binding to HL-60 cells: 80%
